Reference: PMC10779311, “Antileishmanial Activity, Toxicity and Mechanism of Action of Complexes of Sodium Usnate with Lanthanide Ions: Eu(III), Sm(III), Gd(III), Nd(III), La(III) and Tb(III)” (International Journal of Molecular Sciences, 2023)
pIC50: −log10 of the molar value. Read-outs that look alike come from different tables or passages of the source.

Columns and labels:
[1] = system: L. (L.) amazonensis promastigote forms; assay: In vitro antileishmanial activity on promastigote forms (MTT); assay type: cell-based, Leishmania (Leishmania) amazonensis; details: 72 h
[2] = system: L. (L.) amazonensis intracellular amastigotes; assay: In vitro antileishmanial activity on intracellular amastigotes in peritoneal macrophages; assay type: cell-based, Leishmania (Leishmania) amazonensis; details: for pIC50: BALB/c peritoneal macrophages, 24 h, Giemsa count, read-out: L. amazonensis Intracellular Amastigotes (Ama.) IC50
Experimental: Peritoneal macrophages were obtained from BALB/c mice in RPMI 1640 culture medium (Sigma-Aldrich® São Paulo, Brazil). After exclusion of inviable cells with trypan blue staining (Sigma-Aldrich® São Paulo, Brazil), cells were transferred to 24-well plates with 13 mm round glass coverslips (10^6 cells/well) and kept at 37 °C/5% CO2. After adhesion for one hour, cells were infected with promastigote forms of L. (L.) amazonensis in the stationary phase (4 × 10^6 cells/well). After 4 h of incubation, samples (complexes 1–7) were added in six replicates (6.25–50.0 µg·mL^−1). […] Coverslips were removed after 24 h, subjected to a dehydration battery with increasing concentrations of acetone: xylol and stained with Giemsa (Sigma-Aldrich®, São Paulo, Brazil) diluted 1:10 in distilled water. After mounting on slides, 200 cells per coverslip were analyzed by light microscopy and the average number of amastigotes/cells was calculated. IC50 was determined using a non-linear dose–response regression curve as described above. The concentrations of complexes were compared by Two-way ANOVA followed by the Tukey test.

[3] = system: L. (L.) amazonensis promastigote forms; assay: Flow cytometry for apoptosis and membrane permeability (PE Annexin V / 7-AAD); assay type: cell-based, Leishmania (Leishmania) amazonensis; details: for 7-AAD-stained parasites / An. (PE Annexin V-stained parasites) / An./7-AAD (double stained parasites) / Unst. (unstained parasites): treatment at IC50
Excerpt: PE Annexin V staining precedes the loss of membrane integrity observed in the final stages of cell death, resulting from either apoptotic or necrotic processes. PE Annexin V is used in conjunction with the vital dye 7-Amino-Actinomycin (7-AAD) to identify early apoptotic cells (7-AAD negative, PE Annexin V positive). Viable cells with intact membranes exclude 7-AAD, but the membranes of dead and damaged cells are permeable to 7-AAD. Cells that are in late apoptosis or already dead are both PE Annexin V and 7-AAD positive. […] Heat-killed parasites (60 °C bath/10 min) were used as positive control, and untreated parasites were used as negative control. Promastigotes were stained with 5 µL of PE Annexin V and 5 µL 7-AAD (PE Annexin V Apoptosis Detection Kit I, BD Biosciences^TM, Franklin Lakes, NJ, USA) and immediately subjected to flow cytometric analysis (BD FACSCanto^TM II). Then, 10,000 events were captured in the region previously determined to correspond to the parasites. Fluorescence was quantified and histograms were generated.

NIH/3T3 fibroblasts = assay: Cytotoxicity in mammalian cells (sulforhodamine B); assay type: cell-based; details: 48 h, read-out: Fibroblasts NIH/3T3 (Fib.) IC50
Experimental: The cytotoxic effect of compounds 1–7 was evaluated on NIH/3T3 fibroblasts obtained from the Rio de Janeiro Cell Bank (Duque de Caxias, Brazil). Fibroblasts were seeded at […] in 96-well plates. After 24 h of fixation, cells were incubated for 48 h with 1–7 at 2.5–250 µg·mL^−1, in three replicates. Cell growth was evaluated using the sulforhodamine B colorimetric method, and the optical with absorbances read on the PT-READER microplate instrument (Spectramax 190, Molecular Devices, Sunnyvale, CA, USA) at 540 nm. […] The growth inhibition percentage-GI (%) of each test sample was calculated in Microsoft Office Excel 2007 software. IC50 was determined graphically in the Microcal Origin Version 6.00 program. The selectivity index (SI) was calculated as the ratio between the cytotoxicity on cells (IC50) and the activity on the parasite forms (IC50).

[4] = system: L. (L.) amazonensis promastigote forms; assay: Flow cytometry for mitochondrial membrane potential (TMRE); assay type: cell-based, Leishmania (Leishmania) amazonensis; details: for reduction in TMRE labeling (ΔΨm): treatment at IC50, relative to nontreated parasites
[5] = Leishmania amazonensis, Peritoneal macrophage, in Mus musculus
[6] = MTT, read-out: L. amazonensis Promastigotes (Pro.) IC50
[7] = 48 h after treatment at the calculated IC50
[8] = 72 h after treatment at the calculated IC50

## C[C@@H]1[C@H](O)[C@@H](C)/C=C/C=C/C=C/C=C/C=C/C=C/C=C/[C@H](O[C@@H]2O[C@H](C)[C@@H](O)[C@H](N)[C@@H]2O)C[C@@H]2O[C@](O)(C[C@@H](O)C[C@@H](O)[C@H](O)CC[C@@H](O)C[C@@H](O)CC(=O)O[C@H]1C)C[C@H](O)[C@H]2C(=O)O [Amphotericin B, reference compound]
[1]; Leishmania amazonensis, MTT, read-out: L. amazonensis Promastigotes (Pro.) IC50
  pIC50: 6.84
[2]; [5]
  pIC50: 6.70

## CC(=O)C1=C([O-])C=C2Oc3c(C(C)=O)c(O)c(C)c(O)c3C2(C)C1=O.CC(=O)C1=C([O-])C=C2Oc3c(C(C)=O)c(O)c(C)c(O)c3C2(C)C1=O.CC(=O)C1=C([O-])C=C2Oc3c(C(C)=O)c(O)c(C)c(O)c3C2(C)C1=O.O.O.O.[Gd+3] (stereo not drawn) [GdL3·3H2O 3]
[1]; [6]
  pIC50: 5.82
[3]; 24 h
  7-AAD-stained parasites: 0.4%
  An. (PE Annexin V-stained parasites): 0.7%
  An./7-AAD (double stained parasites): 0.6%
  Unst. (unstained parasites): 98.4%
[3]; 48 h
  7-AAD-stained parasites: 12.7%
  An. (PE Annexin V-stained parasites): 2.4%
  An./7-AAD (double stained parasites): 6%
  Unst. (unstained parasites): 78.8%
[3]; 48 h after treatment at IC50
  reduction in cell viability: 17.4%
[3]; 72 h
  7-AAD-stained parasites: 3.2%
  An. (PE Annexin V-stained parasites): 2.6%
  An./7-AAD (double stained parasites): 7.4%
  Unst. (unstained parasites): 86.8%
[2]
  pIC50: 5.26
NIH/3T3 fibroblasts
  pIC50: 4.58
[4]; 48 h
  reduction in TMRE labeling (ΔΨm): 36.2%
[4]; [7]
  TMRE-labeled promastigotes: 46.8%
[4]; 72 h
  reduction in TMRE labeling (ΔΨm): 24.5%
[4]; [8]
  TMRE-labeled promastigotes: 59.2%

## CC(=O)C1=C([O-])C=C2Oc3c(C(C)=O)c(O)c(C)c(O)c3C2(C)C1=O.CC(=O)C1=C([O-])C=C2Oc3c(C(C)=O)c(O)c(C)c(O)c3C2(C)C1=O.CC(=O)C1=C([O-])C=C2Oc3c(C(C)=O)c(O)c(C)c(O)c3C2(C)C1=O.O.O.O.[La+3] (stereo not drawn) [LaL3·3H2O 7]
[1]; [6]
  pIC50: 5.83
[3]; 24 h
  7-AAD-stained parasites: 0.4%
  An. (PE Annexin V-stained parasites): 0.7%
  An./7-AAD (double stained parasites): 0.5%
  Unst. (unstained parasites): 98.3%
[3]; 48 h
  7-AAD-stained parasites: 1.6%
  An. (PE Annexin V-stained parasites): 1.8%
  An./7-AAD (double stained parasites): 3.3%
  Unst. (unstained parasites): 93.3%
[3]; 72 h
  7-AAD-stained parasites: 5.6%
  An. (PE Annexin V-stained parasites): 2.4%
  An./7-AAD (double stained parasites): 10.0%
  Unst. (unstained parasites): 82.0%
[2]
  pIC50: 5.34
[2]; class by IC50
  Intracellular amastigote activity, arbitrary scale: active
NIH/3T3 fibroblasts
  pIC50: 4.96
[4]; [7]
  TMRE-labeled promastigotes: 76.0%
[4]; 72 h
  reduction in TMRE labeling (ΔΨm): 22.3%
[4]; [8]
  TMRE-labeled promastigotes: 82.0%

## CC(=O)C1=C([O-])C=C2Oc3c(C(C)=O)c(O)c(C)c(O)c3C2(C)C1=O.CC(=O)C1=C([O-])C=C2Oc3c(C(C)=O)c(O)c(C)c(O)c3C2(C)C1=O.CC(=O)C1=C([O-])C=C2Oc3c(C(C)=O)c(O)c(C)c(O)c3C2(C)C1=O.O.O.O.[Nd+3] (stereo not drawn) [NdL3·3H2O 5]
[1]; [6]
  pIC50: 6.04
[3]; 24 h
  7-AAD-stained parasites: 0.3%
  An. (PE Annexin V-stained parasites): 0.7%
  An./7-AAD (double stained parasites): 0.5%
  Unst. (unstained parasites): 98.4%
[3]; 48 h
  7-AAD-stained parasites: 1.6%
  An. (PE Annexin V-stained parasites): 1.4%
  An./7-AAD (double stained parasites): 3.3%
  Unst. (unstained parasites): 93.8%
[3]; 72 h
  7-AAD-stained parasites: 7.7%
  An. (PE Annexin V-stained parasites): 2.5%
  An./7-AAD (double stained parasites): 10.0%
  Unst. (unstained parasites): 79.8%
[2]
  pIC50: 5.55
NIH/3T3 fibroblasts
  pIC50: 4.70
[4]; [7]
  TMRE-labeled promastigotes: 70.1%
[4]; 72 h
  reduction in TMRE labeling (ΔΨm): 11.35%
[4]; [8]
  TMRE-labeled promastigotes: 60.9%

## N=C(N)c1ccc(OCCCCCOc2ccc(C(=N)N)cc2)cc1 [Pentamidine, reference compound]
[1]; [6]
  pIC50: 5.83
[1]; Leishmania amazonensis, read-out: L. amazonensis Promastigotes (Pro.) IC50, 72 h, MTT
  pIC50: 5.82
[2]; [5]
  pIC50: 6.04

## CC(=O)C1=C([O-])C=C2Oc3c(C(C)=O)c(O)c(C)c(O)c3C2(C)C1=O.CC(=O)C1=C([O-])C=C2Oc3c(C(C)=O)c(O)c(C)c(O)c3C2(C)C1=O.CC(=O)C1=C([O-])C=C2Oc3c(C(C)=O)c(O)c(C)c(O)c3C2(C)C1=O.O.O.O.O.[Sm+3] (stereo not drawn) [SmL3·4H2O 2]
[1]; [6]
  pIC50: 5.90
[3]; 24 h
  7-AAD-stained parasites: 10.2%
  An. (PE Annexin V-stained parasites): 3.1%
  An./7-AAD (double stained parasites): 5.5%
  Unst. (unstained parasites): 81.2%
[3]; 24 h after treatment at IC50
  reduction in viability: 17.2%
[3]; 48 h
  7-AAD-stained parasites: 2.8%
  An. (PE Annexin V-stained parasites): 1.7%
  An./7-AAD (double stained parasites): 3.4%
  Unst. (unstained parasites): 92.1%
[3]; 72 h
  7-AAD-stained parasites: 4.0%
  An. (PE Annexin V-stained parasites): 2.5%
  An./7-AAD (double stained parasites): 7.6%
  Unst. (unstained parasites): 85.8%
[2]
  pIC50: 5.28
NIH/3T3 fibroblasts
  pIC50: 4.70
[4]; 48 h
  reduction in TMRE labeling (ΔΨm): 40.7%
[4]; [7]
  TMRE-labeled promastigotes: 43.5%
[4]; 72 h
  reduction in TMRE labeling (ΔΨm): 41.7%
[4]; [8]
  TMRE-labeled promastigotes: 45.7%

## CC(=O)C1=C([O-])C=C2Oc3c(C(C)=O)c(O)c(C)c(O)c3C2(C)C1=O.CC(=O)C1=C([O-])C=C2Oc3c(C(C)=O)c(O)c(C)c(O)c3C2(C)C1=O.CC(=O)C1=C([O-])C=C2Oc3c(C(C)=O)c(O)c(C)c(O)c3C2(C)C1=O.O.O.[Tb+3] (stereo not drawn) [TbL3·2H2O 6]
[1]; [6]
  pIC50: 8.64
[3]; 24 h
  7-AAD-stained parasites: 0.2%
  An. (PE Annexin V-stained parasites): 0.8%
  An./7-AAD (double stained parasites): 0.6%
  Unst. (unstained parasites): 98.3%
[3]; 48 h
  7-AAD-stained parasites: 1.2%
  An. (PE Annexin V-stained parasites): 1.3%
  An./7-AAD (double stained parasites): 3.0%
  Unst. (unstained parasites): 94.5%
[3]; 72 h
  7-AAD-stained parasites: 6.4%
  An. (PE Annexin V-stained parasites): 2.6%
  An./7-AAD (double stained parasites): 10.1%
  Unst. (unstained parasites): 80.9%
[2]
  pIC50: 5.12
NIH/3T3 fibroblasts
  pIC50: 4.76
[4]; [7]
  TMRE-labeled promastigotes: 70.2%
[4]; [8]
  TMRE-labeled promastigotes: 69.5%
